ChEMBL document CHEMBL3352652, “Oleanolic acid analogs as NO, TNF-α and IL-1β inhibitors: synthesis, biological evaluation and docking studies” (Bioorg Med Chem Lett, 2014)
In brackets after ≈: the same amount, converted by molar mass.

How the values were obtained:
[1] = Cytotoxicity against mouse J774A1 cells assessed as cell viability by MTT assay relative to control; type: cell-based; conditions: J774.A1
[2] = system: J774.A1; assay: Inhibition of LPS-induced NO production in mouse J774A1 cells compound preincubated for 1 hr before LPS treatment by Griess reaction; type: functional, cell-based
[3] = system: RAW264.7; assay: Cytotoxicity mouse RAW264.7 cells assessed as cell viability by MTT assay relative to control; type: cell-based
[4] = system: RAW264.7; assay: Inhibition of LPS-induced NO production in mouse RAW264.7 cells compound preincubated for 1 hr before LPS treatment by Griess reaction; type: functional, cell-based
[5] = system: RAW264.7; assay: Inhibition of LPS-induced TNF-alpha release in mouse RAW264.7 cells compound preincubated at 20 ug/ml for 1 hr before LPS treatment measured after 6 to 12 hrs by sandwich immunoassay; type: functional
[6] = system: J774.A1; assay: Inhibition of LPS-induced IL1-beta release in mouse J774A1 cells compound preincubated at 20 ug/ml for 1 hr before LPS treatment measured after 6 to 12 hrs by sandwich immunoassay; type: functional
[7] = system: J774.A1; assay: Inhibition of LPS-induced TNF-alpha release in mouse J774A1 cells compound preincubated at 20 ug/ml for 1 hr before LPS treatment measured after 6 to 12 hrs by sandwich immunoassay; type: functional
[8] = system: RAW264.7; assay: Inhibition of LPS-induced IL1-beta release in mouse RAW264.7 cells compound preincubated at 20 ug/ml for 1 hr before LPS treatment measured after 6 to 12 hrs by sandwich immunoassay; type: functional
[9] = system: J774.A1; assay: Inhibition of LPS-induced TNF-alpha release in mouse J774A1 cells compound preincubated for 1 hr before LPS treatment measured after 6 to 12 hrs by sandwich immunoassay; type: functional, cell-based
[10] = system: RAW264.7; assay: Inhibition of LPS-induced IL1-beta release in mouse RAW264.7 cells compound preincubated for 1 hr before LPS treatment measured after 6 to 12 hrs by sandwich immunoassay; type: functional, cell-based
[11] = system: RAW264.7; assay: Inhibition of LPS-induced TNF-alpha release in mouse RAW264.7 cells compound preincubated for 1 hr before LPS treatment measured after 6 to 12 hrs by sandwich immunoassay; type: functional, cell-based
[12] = system: J774.A1; assay: Inhibition of LPS-induced IL1-beta release in mouse J774A1 cells compound preincubated for 1 hr before LPS treatment measured after 6 to 12 hrs by sandwich immunoassay; type: functional, cell-based

| SMILES | IC50 [2] | IC50 [4] | IC50 [9] | IC50 [10] | IC50 [11] | IC50 [12] | IC50 [1] | IC50 [3] | inhibition at 20 µg/mL [5] | inhibition at 20 µg/mL [6] | inhibition at 20 µg/mL [7] | inhibition at 20 µg/mL [8] |
| --- | --- | --- | --- | --- | --- | --- | --- | --- | --- | --- | --- | --- |
| CC1(C)CC[C@]2(C(=O)O)CC[C@]3(C)C(=CC[C@@H]4[C@@]5(C)CC/C(=N\O)C(C)(C)[C@@H]5CC[C@]43C)[C@@H]2C1 | 41.3 µM | 39.2 µM |  |  |  |  | 85.5 µM | 82.4 µM |  |  |  |  |
| CC1(C)CC[C@]2(C(=O)O)CC[C@]3(C)C(=CC[C@@H]4[C@@]5(C)CC[C@H](O)C(C)(C)[C@@H]5CC[C@]43C)[C@@H]2C1 [OLEANOLIC_ACID] | 35.2 µM | 41.7 µM |  |  |  |  | 87.2 µM | 89.1 µM |  |  |  |  |
| C[C@@H]1C[C@H]2[C@@H]3CCC4=CC(=O)C=C[C@]4(C)[C@@]3(F)[C@@H](O)C[C@]2(C)[C@@]1(O)C(=O)CO [DEXAMETHASONE] |  |  | 0.165 µg/mL (≈ 0.42 µM) | 1.84 µg/mL (≈ 4.69 µM) | 0.016 µg/mL (≈ 0.0408 µM) | 9.09 µg/mL (≈ 23.2 µM) |  |  |  |  |  |  |
| COC(=O)[C@@H](N)CCCNC(=N)N[N+](=O)[O-] [L-NAME] | 73.2 µM |  |  |  |  |  |  |  |  |  |  |  |
| CC1(C)CC[C@]2(C(=O)Nc3ccc(Br)cc3)CC[C@]3(C)C(=CC[C@@H]4[C@@]5(C)Cc6c([nH]c7ccccc67)C(C)(C)[C@@H]5CC[C@]43C)[C@@H]2C1 | 27.4 µM | 25.4 µM |  |  |  |  | 87 µM | 85.3 µM |  |  |  |  |
| Cc1ccc(NC(=O)[C@]23CCC(C)(C)C[C@H]2C2=CC[C@@H]4[C@@]5(C)Cc6c([nH]c7ccccc67)C(C)(C)[C@@H]5CC[C@@]4(C)[C@]2(C)CC3)cc1 | 26.1 µM | 22.6 µM |  |  |  |  | 83.5 µM | 80.4 µM |  |  |  |  |
| COC(=O)[C@]12CCC(C)(C)C[C@H]1C1=CC[C@@H]3[C@@]4(C)CCC(=O)C(C)(C)[C@@H]4CC[C@@]3(C)[C@]1(C)CC2 | 33.5 µM | 31.7 µM |  |  |  |  | 82.5 µM | 79.3 µM |  |  |  |  |
| Cc1ccc(C)c(NC(=O)[C@]23CCC(C)(C)C[C@H]2C2=CC[C@@H]4[C@@]5(C)Cc6c([nH]c7ccccc67)C(C)(C)[C@@H]5CC[C@@]4(C)[C@]2(C)CC3)c1 | 29.4 µM | 23.2 µM |  |  |  |  | 84.7 µM | 83.2 µM |  |  |  |  |
| CC1(C)CC[C@]2(C(=O)O)CC[C@]3(C)C(=CC[C@@H]4[C@@]5(C)CCC(=O)C(C)(C)[C@@H]5CC[C@]43C)[C@@H]2C1 [OLEANONIC ACID] | 38.8 µM | 38.5 µM |  |  |  |  | 87.7 µM | 89.6 µM |  |  |  |  |

Continued by falling IC50 [2], values first:

| IC50 [2] | IC50 [4] | IC50 [9] | IC50 [10] | IC50 [11] | IC50 [12] | SMILES | IC50 [1] | IC50 [3] | inhibition at 20 µg/mL [5] | inhibition at 20 µg/mL [6] | inhibition at 20 µg/mL [7] | inhibition at 20 µg/mL [8] |
| --- | --- | --- | --- | --- | --- | --- | --- | --- | --- | --- | --- | --- |
| 24.9 µM | 22.8 µM |  |  |  |  | CC1(C)CC[C@]2(C(=O)Cl)CC[C@]3(C)C(=CC[C@@H]4[C@@]5(C)Cc6c([nH]c7ccccc67)C(C)(C)[C@@H]5CC[C@]43C)[C@@H]2C1 | 89.3 µM | 86.2 µM |  |  |  |  |
| 21 µM | 18.8 µM |  |  |  |  | CC1(C)CC[C@]2(C(=O)O)CC[C@]3(C)C(=CC[C@@H]4[C@@]5(C)Cc6c([nH]c7ccccc67)C(C)(C)[C@@H]5CC[C@]43C)[C@@H]2C1 | 83.7 µM | 80.2 µM |  |  |  |  |
| 18.5 µM |  | 2.08 µg/mL (≈ 5.65 µM) | 6.44 µg/mL (≈ 17.5 µM) | 1.25 µg/mL (≈ 3.39 µM) | 24.8 µg/mL (≈ 67.4 µM) | COc1cc(/C=C/C(=O)CC(=O)/C=C/c2ccc(O)c(OC)c2)ccc1O [CURCUMIN] |  |  |  |  |  |  |
| 18.4 µM | 24.1 µM |  |  |  |  | CC1(C)CC[C@]2(C(=O)NCc3ccccc3)CC[C@]3(C)C(=CC[C@@H]4[C@@]5(C)Cc6c([nH]c7ccccc67)C(C)(C)[C@@H]5CC[C@]43C)[C@@H]2C1 | 93.5 µM | 93.5 µM |  |  |  |  |
| 17.7 µM | 16.5 µM |  |  |  |  | CC1(C)CC[C@]2(C(=O)NN)CC[C@]3(C)C(=CC[C@@H]4[C@@]5(C)Cc6c([nH]c7ccccc67)C(C)(C)[C@@H]5CC[C@]43C)[C@@H]2C1 | 91 µM | 92.4 µM | 31.2% | 11.1% | 27.9% | 13.9% |
| 16.8 µM | 13.8 µM |  |  |  |  | CC(=O)O[C@H]1CC[C@]2(C)[C@H]3CC=C4[C@@H]5CC(C)(C)CC[C@]5(C(=O)O)CC[C@@]4(C)[C@]3(C)CC[C@H]2C1(C)C [ACETYL OLEANOLIC ACID] | 80.3 µM | 79.2 µM | 38.7% | 21.1% | 33.1% | 22.8% |
| 15.9 µM | 4.75 µM |  |  |  |  | CNC(=O)[C@]12CCC(C)(C)C[C@H]1C1=CC[C@@H]3[C@@]4(C)Cc5c([nH]c6ccccc56)C(C)(C)[C@@H]4CC[C@@]3(C)[C@]1(C)CC2 | 91.7 µM | 90.3 µM | 43.7% | 11.8% | 40.3% | 13.3% |
| 10.8 µM | 2.66 µM |  |  |  |  | CC1(C)CC[C@]2(C(=O)NC3CCCCC3)CC[C@]3(C)C(=CC[C@@H]4[C@@]5(C)Cc6c([nH]c7ccccc67)C(C)(C)[C@@H]5CC[C@]43C)[C@@H]2C1 | 97.3 µM | 96.4 µM | 47.8% | 31.7% | 51.9% | 37.5% |
